The nature of data set [1]: physchem. Particulars: buffer, pH 7.4.
Description: Lipophilicity, log D of the compound at pH 7.4
The target in data set [2] is T1, Mitogen-activated protein kinase kinase kinase 5 (Homo sapiens, UniProt Q99683).
T1 sequence (Q99683 whole entry): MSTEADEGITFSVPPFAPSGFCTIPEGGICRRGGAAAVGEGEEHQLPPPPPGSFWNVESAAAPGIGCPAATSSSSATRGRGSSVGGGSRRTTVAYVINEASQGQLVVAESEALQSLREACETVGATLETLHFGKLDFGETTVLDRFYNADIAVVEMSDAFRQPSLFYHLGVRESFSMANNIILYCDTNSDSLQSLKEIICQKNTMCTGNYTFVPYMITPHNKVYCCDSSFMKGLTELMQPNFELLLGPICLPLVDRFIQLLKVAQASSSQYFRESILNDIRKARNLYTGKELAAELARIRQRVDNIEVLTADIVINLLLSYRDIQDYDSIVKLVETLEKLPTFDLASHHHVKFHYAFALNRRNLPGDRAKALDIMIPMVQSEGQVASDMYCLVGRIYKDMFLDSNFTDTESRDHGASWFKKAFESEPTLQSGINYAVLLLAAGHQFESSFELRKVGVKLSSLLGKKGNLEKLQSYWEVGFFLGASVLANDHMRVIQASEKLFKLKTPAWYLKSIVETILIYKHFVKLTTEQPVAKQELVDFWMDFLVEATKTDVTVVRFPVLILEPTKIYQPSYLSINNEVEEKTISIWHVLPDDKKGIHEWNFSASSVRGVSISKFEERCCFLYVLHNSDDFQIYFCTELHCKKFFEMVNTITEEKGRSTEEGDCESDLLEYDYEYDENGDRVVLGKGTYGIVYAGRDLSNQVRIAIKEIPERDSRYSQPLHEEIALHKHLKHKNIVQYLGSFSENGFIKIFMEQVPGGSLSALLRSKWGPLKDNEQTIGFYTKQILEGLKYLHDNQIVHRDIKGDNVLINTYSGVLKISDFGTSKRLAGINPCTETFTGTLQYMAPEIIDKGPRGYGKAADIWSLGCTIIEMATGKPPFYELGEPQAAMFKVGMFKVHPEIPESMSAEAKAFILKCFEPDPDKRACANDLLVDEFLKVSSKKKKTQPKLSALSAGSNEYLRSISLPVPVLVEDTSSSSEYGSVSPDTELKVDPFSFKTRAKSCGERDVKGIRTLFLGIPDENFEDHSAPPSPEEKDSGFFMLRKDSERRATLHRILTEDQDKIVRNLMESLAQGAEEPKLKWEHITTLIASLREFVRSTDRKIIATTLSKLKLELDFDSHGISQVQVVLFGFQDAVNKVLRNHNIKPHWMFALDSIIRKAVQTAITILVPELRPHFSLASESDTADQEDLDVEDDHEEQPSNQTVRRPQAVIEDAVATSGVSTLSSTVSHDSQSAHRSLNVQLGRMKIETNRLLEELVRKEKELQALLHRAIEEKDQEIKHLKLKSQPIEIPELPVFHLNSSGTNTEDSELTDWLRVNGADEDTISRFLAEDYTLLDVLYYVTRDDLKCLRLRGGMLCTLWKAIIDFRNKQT
Kind of data set: Competitive inhibition of human recombinant N-terminal FLAG-tagged ASK1 expressed in baculovirus infected […] cells after 60 mins by scintillation counting analysis in presence of [gamma-33P]ATP.

The test system of data set [3] is INS1. Kind of data set: Inhibition of ASK1 in rat INS1 ([…]) cells assessed as downregulation of streptozotocin-induced JNK phosphorylation at 0.3 to 10 uM incubated for 1 hr prior to streptozotocin induction measured after 1 hr by Western blot analysis. The format is cell-based. A general note: In western blotting, separated proteins are transferred to a membrane and probed.

Data set [4] deals with INS1. Kind of data set: Inhibition of ASK1 in rat INS1 ([…]) cells assessed as downregulation of streptozotocin-induced p38 phosphorylation incubated for 1 hr prior to streptozotocin induction measured after 1 hr by Western blot analysis. The format is cell-based.
Data set [5] deals with Glycogen synthase kinase-3 beta (Homo sapiens, UniProt P49841). Description: Inhibition of GSK3beta.
Data set [6] concerns the target Protein kinase C theta type (Homo sapiens, UniProt Q04759). Description: Inhibition of PKCtheta.
In data set [7] the target is Mitogen-activated protein kinase kinase kinase 1 (Homo sapiens, UniProt Q13233). Description: Inhibition of MEKK1.
For data set [8], the target named is Mitogen-activated protein kinase 14 (Homo sapiens, UniProt Q16539). Description: Inhibition of p38alpha.
Data set [9] has as its target T2, Mitogen-activated protein kinase kinase kinase 6 (Homo sapiens, UniProt O95382).
T2 sequence (O95382 whole entry): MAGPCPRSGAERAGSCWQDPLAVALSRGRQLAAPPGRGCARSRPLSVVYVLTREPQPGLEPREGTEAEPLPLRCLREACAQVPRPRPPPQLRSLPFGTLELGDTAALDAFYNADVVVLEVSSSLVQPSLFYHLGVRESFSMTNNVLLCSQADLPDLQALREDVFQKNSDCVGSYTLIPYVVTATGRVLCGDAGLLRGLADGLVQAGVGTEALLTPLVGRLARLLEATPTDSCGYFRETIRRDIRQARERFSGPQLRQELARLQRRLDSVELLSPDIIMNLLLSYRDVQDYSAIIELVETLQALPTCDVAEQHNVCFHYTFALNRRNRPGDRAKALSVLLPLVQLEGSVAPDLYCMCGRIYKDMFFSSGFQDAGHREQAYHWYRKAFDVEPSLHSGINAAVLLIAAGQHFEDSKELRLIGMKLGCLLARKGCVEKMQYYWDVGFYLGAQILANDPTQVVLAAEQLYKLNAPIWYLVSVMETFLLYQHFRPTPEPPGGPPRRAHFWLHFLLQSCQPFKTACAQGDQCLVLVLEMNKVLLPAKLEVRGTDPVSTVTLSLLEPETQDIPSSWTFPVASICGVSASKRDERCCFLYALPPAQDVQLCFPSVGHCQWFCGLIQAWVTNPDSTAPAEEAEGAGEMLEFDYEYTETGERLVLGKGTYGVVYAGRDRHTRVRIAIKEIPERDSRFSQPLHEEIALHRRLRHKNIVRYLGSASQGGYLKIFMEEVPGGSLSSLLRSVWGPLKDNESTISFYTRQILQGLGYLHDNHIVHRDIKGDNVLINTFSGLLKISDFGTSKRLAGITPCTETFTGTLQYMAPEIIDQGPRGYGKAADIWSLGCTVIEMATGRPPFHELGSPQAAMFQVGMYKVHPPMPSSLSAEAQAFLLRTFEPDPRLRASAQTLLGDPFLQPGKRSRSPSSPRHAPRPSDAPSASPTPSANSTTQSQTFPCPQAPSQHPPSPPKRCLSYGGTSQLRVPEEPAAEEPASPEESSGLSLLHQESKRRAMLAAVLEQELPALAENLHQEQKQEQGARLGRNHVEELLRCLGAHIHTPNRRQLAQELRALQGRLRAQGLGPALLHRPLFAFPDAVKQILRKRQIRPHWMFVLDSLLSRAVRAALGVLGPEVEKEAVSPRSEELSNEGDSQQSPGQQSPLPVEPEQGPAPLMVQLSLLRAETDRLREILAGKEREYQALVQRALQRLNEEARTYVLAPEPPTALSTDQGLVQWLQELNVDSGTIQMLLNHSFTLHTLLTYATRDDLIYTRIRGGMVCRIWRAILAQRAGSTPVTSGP
Kind of data set: Inhibition of ASK2.

The target of data set [10] is Serine/threonine-protein kinase B-raf (Homo sapiens, UniProt P15056). Kind of data set: Inhibition of BRAF.
Data set [11] has as its target Mitogen-activated protein kinase 3 (Homo sapiens, UniProt P27361). Description: Inhibition of ERK1.
Data set [12] addresses T3, Inhibitor of nuclear factor kappa-B kinase subunit beta (Homo sapiens, UniProt O14920).
T3 sequence (O14920 whole entry): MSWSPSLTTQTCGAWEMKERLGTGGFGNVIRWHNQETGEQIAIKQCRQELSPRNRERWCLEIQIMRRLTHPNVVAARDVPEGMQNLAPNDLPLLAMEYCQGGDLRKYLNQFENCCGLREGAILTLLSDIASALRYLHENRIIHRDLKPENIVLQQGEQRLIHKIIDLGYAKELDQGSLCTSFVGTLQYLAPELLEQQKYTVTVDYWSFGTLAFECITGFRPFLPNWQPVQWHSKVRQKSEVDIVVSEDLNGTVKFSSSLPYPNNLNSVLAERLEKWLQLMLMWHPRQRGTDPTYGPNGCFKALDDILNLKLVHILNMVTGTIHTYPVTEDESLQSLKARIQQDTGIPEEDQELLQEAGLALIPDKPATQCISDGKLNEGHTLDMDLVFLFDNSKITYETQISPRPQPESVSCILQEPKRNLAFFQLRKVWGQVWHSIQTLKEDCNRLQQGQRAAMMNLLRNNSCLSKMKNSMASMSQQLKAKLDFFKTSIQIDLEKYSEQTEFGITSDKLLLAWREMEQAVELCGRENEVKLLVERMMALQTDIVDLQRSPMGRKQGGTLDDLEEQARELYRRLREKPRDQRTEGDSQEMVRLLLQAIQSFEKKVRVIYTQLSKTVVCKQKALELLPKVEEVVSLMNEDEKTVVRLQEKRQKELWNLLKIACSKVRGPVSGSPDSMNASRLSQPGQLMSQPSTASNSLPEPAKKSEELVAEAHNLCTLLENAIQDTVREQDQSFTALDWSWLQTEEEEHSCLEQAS
Description: Inhibition of IKKbeta.

Data set [13] concerns the target Mitogen-activated protein kinase 8 (Homo sapiens, UniProt P45983). Kind of data set: Inhibition of JNK1.

SMILES strings stand for the structures. Active and inactive are the calls of the source. No cut-off for these calls is given here. Some results are limits rather than exact numbers.

Chain of Serine/threonine-protein kinase B-raf (P15056 whole entry): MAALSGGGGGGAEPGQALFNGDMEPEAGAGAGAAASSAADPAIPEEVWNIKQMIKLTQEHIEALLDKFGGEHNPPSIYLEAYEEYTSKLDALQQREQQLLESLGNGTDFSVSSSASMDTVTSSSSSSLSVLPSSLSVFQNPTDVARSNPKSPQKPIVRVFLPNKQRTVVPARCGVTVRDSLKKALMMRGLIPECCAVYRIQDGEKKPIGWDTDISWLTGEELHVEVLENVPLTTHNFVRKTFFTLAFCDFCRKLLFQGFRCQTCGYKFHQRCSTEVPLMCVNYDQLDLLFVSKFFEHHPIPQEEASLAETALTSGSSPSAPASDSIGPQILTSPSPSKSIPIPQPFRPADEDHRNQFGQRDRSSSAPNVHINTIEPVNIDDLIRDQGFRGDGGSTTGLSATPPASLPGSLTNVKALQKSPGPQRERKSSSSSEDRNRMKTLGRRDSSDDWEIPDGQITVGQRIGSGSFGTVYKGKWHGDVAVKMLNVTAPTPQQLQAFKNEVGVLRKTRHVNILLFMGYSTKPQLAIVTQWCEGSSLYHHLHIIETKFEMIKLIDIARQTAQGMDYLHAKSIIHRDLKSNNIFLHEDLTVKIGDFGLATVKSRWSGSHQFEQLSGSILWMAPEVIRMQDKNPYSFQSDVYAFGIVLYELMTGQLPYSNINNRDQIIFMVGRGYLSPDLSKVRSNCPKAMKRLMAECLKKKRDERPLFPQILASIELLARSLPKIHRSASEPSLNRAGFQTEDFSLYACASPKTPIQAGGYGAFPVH
Chain of Mitogen-activated protein kinase 3 (P27361 whole entry): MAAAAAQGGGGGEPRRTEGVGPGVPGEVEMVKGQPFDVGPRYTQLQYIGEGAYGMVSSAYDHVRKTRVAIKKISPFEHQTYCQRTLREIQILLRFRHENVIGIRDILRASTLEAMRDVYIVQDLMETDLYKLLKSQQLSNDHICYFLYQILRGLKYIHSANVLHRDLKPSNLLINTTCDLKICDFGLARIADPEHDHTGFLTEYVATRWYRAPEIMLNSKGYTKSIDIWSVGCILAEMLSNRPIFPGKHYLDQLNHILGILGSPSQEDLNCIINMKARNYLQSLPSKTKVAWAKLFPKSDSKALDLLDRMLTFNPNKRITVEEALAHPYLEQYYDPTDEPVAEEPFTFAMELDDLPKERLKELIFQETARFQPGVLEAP
Chain of Mitogen-activated protein kinase 8 (P45983 whole entry): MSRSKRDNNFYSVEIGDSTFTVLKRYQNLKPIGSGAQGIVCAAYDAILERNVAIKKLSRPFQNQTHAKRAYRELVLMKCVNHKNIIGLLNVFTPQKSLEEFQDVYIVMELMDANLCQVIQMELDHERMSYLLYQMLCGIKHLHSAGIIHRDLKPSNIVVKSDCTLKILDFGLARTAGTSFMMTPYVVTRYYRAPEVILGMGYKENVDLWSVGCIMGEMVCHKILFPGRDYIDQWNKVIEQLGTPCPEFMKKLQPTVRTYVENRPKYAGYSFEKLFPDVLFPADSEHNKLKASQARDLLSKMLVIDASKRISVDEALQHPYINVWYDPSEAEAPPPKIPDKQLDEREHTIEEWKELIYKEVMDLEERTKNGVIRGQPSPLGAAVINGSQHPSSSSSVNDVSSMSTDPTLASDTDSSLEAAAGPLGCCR
Chain of Glycogen synthase kinase-3 beta (P49841 whole entry): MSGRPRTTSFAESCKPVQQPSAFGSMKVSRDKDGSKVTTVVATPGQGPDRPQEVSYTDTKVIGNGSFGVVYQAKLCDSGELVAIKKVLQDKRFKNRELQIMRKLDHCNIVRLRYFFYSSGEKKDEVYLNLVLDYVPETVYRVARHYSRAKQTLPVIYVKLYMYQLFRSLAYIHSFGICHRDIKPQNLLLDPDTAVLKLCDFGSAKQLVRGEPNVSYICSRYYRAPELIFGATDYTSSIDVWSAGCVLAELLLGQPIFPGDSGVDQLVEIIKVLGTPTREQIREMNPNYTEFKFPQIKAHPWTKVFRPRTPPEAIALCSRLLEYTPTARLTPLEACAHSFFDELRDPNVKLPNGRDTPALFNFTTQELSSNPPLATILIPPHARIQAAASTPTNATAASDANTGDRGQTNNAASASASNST
Chain of Mitogen-activated protein kinase 14 (Q16539 whole entry): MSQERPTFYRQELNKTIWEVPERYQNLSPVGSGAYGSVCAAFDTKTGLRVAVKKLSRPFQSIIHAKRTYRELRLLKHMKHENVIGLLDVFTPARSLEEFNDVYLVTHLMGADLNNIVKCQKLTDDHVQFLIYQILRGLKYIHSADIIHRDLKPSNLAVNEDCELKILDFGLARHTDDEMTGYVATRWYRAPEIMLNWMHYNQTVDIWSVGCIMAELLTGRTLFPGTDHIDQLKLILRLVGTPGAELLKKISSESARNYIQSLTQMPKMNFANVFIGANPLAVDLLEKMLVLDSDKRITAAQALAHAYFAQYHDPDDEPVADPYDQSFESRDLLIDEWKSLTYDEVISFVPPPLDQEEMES
Chain of Mitogen-activated protein kinase kinase kinase 1 (Q13233 whole entry): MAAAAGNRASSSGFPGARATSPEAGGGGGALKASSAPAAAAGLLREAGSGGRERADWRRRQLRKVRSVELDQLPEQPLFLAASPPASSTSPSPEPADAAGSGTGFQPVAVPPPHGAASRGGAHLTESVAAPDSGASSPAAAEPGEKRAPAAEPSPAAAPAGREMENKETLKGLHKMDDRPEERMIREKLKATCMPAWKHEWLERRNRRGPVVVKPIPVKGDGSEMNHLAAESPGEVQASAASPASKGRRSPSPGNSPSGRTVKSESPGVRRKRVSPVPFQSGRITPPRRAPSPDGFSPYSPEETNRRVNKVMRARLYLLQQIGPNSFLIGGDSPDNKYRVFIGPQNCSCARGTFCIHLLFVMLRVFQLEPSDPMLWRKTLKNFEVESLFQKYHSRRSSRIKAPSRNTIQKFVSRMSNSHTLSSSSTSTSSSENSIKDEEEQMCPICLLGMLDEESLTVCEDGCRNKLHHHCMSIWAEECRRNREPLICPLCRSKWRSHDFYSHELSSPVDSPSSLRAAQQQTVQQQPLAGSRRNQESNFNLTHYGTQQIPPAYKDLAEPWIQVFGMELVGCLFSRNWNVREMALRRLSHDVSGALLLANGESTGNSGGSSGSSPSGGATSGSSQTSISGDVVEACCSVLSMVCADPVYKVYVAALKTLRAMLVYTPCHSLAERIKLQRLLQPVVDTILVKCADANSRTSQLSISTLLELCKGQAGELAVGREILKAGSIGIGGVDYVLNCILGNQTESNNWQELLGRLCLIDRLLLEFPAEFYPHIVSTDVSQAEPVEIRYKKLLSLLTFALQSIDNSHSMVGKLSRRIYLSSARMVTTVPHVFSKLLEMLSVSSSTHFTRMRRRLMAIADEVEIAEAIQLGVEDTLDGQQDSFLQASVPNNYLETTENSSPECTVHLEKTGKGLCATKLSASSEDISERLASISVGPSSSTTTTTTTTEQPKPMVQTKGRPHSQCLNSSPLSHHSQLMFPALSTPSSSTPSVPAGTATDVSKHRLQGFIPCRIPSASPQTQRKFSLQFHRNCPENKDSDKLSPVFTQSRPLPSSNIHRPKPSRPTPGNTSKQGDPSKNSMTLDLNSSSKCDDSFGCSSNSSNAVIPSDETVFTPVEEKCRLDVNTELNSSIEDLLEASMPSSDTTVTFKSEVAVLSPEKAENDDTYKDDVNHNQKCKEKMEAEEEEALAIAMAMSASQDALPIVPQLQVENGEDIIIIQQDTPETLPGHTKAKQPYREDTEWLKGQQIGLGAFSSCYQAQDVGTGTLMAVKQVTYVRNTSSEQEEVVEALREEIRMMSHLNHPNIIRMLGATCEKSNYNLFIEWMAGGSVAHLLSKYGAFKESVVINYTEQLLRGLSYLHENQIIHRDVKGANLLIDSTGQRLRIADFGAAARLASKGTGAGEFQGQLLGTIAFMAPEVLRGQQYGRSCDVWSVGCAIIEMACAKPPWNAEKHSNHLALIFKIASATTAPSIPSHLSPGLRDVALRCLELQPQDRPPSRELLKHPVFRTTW
Chain of Protein kinase C theta type (Q04759 whole entry): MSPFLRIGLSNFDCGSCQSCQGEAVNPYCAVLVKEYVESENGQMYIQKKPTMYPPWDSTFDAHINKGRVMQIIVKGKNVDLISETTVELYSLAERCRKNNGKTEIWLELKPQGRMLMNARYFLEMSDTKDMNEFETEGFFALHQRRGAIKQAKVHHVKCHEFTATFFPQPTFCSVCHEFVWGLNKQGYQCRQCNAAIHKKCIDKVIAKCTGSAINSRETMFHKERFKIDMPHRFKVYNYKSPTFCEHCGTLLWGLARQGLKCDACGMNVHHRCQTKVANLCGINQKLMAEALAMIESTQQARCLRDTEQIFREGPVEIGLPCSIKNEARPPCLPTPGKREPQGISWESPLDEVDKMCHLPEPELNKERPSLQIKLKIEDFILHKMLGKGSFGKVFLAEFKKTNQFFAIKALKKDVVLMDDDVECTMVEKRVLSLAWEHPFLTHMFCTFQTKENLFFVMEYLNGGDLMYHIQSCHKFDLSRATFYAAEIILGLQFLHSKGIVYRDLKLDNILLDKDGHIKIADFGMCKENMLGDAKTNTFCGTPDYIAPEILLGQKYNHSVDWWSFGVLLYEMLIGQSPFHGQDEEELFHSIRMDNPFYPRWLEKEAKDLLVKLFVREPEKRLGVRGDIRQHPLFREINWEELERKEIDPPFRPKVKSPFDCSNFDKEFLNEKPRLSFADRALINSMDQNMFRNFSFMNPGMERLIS

The term logD denotes the decadic logarithm of the distribution of all forms, ionised or not, between an organic phase and buffer at a given pH. The low end stands for lower lipophilicity, the high end for higher lipophilicity. The term IC50 denotes the concentration that gives 50% inhibition. Compound `CC(C)(C)c1ccc(C(=O)Nc2cn3cc(-c4ccccc4)ccc3n2)cc1` returned a pH-dependent lipophilicity (logD) in [1] of 4.83. Also, the IC50 in data set [2] came to 82 nM.

For `CC(C)(C)c1ccc(C(=O)Nc2cn3cc(-n4ccnc4)ccc3n2)cc1` [listing 1 of 3 here], in data set [3], the inhibition entry was “Active”. In data set [4], the inhibition entry is “Dose-dependent effect”.

Consider `CC(C)(C)c1ccc(C(=O)Nc2cn3cc(-n4ccnc4)ccc3n2)cc1` [listing 2 of 3 here], for which the log distribution coefficient (logD) in data set [1] was found to be 3.16.

In turn, `CC(C)(O)c1ccc(C(=O)Nc2cn3cc(-n4ccnc4)ccc3n2)cc1` had a logD in data set [1] of 1.27. For the same compound, the IC50 in [2] came out at 70 nM.

With `CNCc1ccc2nc(NC(=O)c3ccc(C(C)(C)C)cc3)cn2c1`, the logD in data set [1] was 2.4. In data set [2], the IC50 was 870 nM.

As for `CC(C)(C)c1ccc(C(=O)Nc2cn3cc(-n4ccnc4)ccc3n2)cc1` [listing 3 of 3 here], the half-inhibitory concentration (IC50) in [5] was > 10000 nM; in data set [6], > 10000 nM; in [7] it was > 10000 nM; in [8], > 10000 nM; in data set [9], 510 nM; in [10] it was > 10000 nM. Besides, the IC50 in data set [11], in data set [12] and in data set [13] was > 10000 nM throughout.

For `CC(C)(C)c1ccc(C(=O)Nc2cn3cc(Cl)ccc3n2)cc1`, in [1], the logD came out at 4.04. The IC50 in [2] came to 16 nM.

As to `CC(C)(C)c1ccc(C(=O)Nc2cn3cc(F)ccc3n2)cc1`, in data set [1], the logD is 3.55. Further, the half-inhibitory concentration (IC50) in data set [2] is 34 nM.

In [1], `CC(C)(C)c1ccc(C(=O)Nc2cn3cc(-c4cccnc4)ccc3n2)cc1` displayed a logD of 3.6. Also, the IC50 in [2] was determined as 21 nM.

For the compound `CC(C)(C)c1ccc(C(=O)Nc2cn3cc(-n4cccc4)ccc3n2)cc1`, the IC50 in data set [2] was 30 nM.

On to `Cc1ccc2nc(NC(=O)c3ccc(C(C)(C)C)cc3)cn2c1`, for which, in data set [1], the log distribution coefficient (logD) worked out at 3.78. The half-maximal inhibitory concentration (IC50) in [2] stood at 22 nM.

`CC(C)(CO)c1ccc(C(=O)Nc2cn3cc(-n4ccnc4)ccc3n2)cc1`: the logD in data set [1] is 1.62. Also, the half-inhibitory concentration (IC50) in data set [2] worked out at 32 nM.

Compound `CC(C)(C)c1ccc(C(=O)Nc2cn3cc(CO)ccc3n2)cc1` showed a logD in [1] of 2.83. Besides, the concentration for half-maximal inhibition (IC50) in data set [2] came out at 129 nM.

In data set [1], `CC(C)(C)c1ccc(C(=O)Nc2cn3cc(Br)ccc3n2)cc1` had a logD of 4.17. For the same compound, in [2], the concentration for half-maximal inhibition (IC50) was found to be 21 nM.

With `Cc1ccc2nc(NC(=O)c3ccc(C(C)(C)C)cc3)sc2c1`, in data set [1], the pH-dependent lipophilicity (logD) worked out at 5.08. Moreover, in data set [2], the 50% inhibitory concentration (IC50) was 260 nM.

The values are drawn from ChEMBL document CHEMBL2203246, “Design and biological evaluation of imidazo[1,2-a]pyridines as novel and potent ASK1 inhibitors” (Bioorg Med Chem Lett, 2012).
